Starred links: 1 amine or outer side, 2 acyl side, 3 side chain; linkers in the order of their positions; H or OH if unused. *: point of attachment. Suc = O=C(CCC(=O)[*:2])[*:1]; Isovaleryl = CC(C)CC(=O)*; Pentanoyl = CCCCC(=O)*; Butyryl = CCCC(=O)*
Columns and labels:
HIV-IIIB + 50% HS = assay: Standard AVE (50% Human Serum), HIV-1 replication assay in MT4-LTR-EGFP cells; type: cell-based; conditions: fold change vs EC50 in the assay without human serum
Outline: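 MT4-LTR-EGFP cells infected with HIV-1 alongside 4-fold serial compound dilutions in 50% human serum, 3 days at 37 °C. EGFP read by laser-scanning microscopy; EC50 by linear interpolation against log concentration, reported as fold change versus EC50 without serum.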

[1] = test system: HIV wild type virus strain IIIB; assay: Standard Anti-Viral-Experiment (AVE), HIV-1 replication assay in MT4-LTR-EGFP cells, wild type IIIB; type: cell-based; conditions: 3 days, EGFP signal
Outline: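 MT4-LTR-EGFP cells infected with HIV-1 IIIB, HXB2D or HXB2D gp41 mutants V38A/Q40H alongside serial 4-fold compound dilutions, 3 days at 37° C. EGFP read by laser-scanning microscopy; EC50 by linear interpolation against log concentration. Mutant results given as fold change in EC50 versus wild-type HXB2D.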

[2] = test system: HIV mutant virus strain HXB2D with mutation Q40H in the gp41 gene; assay: Standard AVE, HXB2D site directed mutant Q40H; type: cell-based, HIV-1; conditions: fold change vs wild type strain HXB2D
Text: • Standard Anti-Viral-Experiment “AVE” (wild type HIV strain IIIB+HIV strain HXB2D side directed mutants V38A and Q40H)
The HIV-1 replication assay measures virus replication (HIV wild type virus strain 111B or HXB2D, or a HIV mutant virus strain HXB2D with mutation V38A or Q40H in the gp41 gene) as an induction of enhanced green fluorescent protein (EGFP) expression. The indicator MT4-LTR-EGFP cells contain an EGFP gene under the control of the HIV-1 LTR promoter sequence. Successful HIV-1 infection results in viral Tat protein expression and subsequent induction of EGFP expression. Compounds/peptides inhibiting HIV-1 infection are expected to reduce EGFP expression as compared to the untreated HIV-infected control.
Serial 4-fold dilutions of test compounds/peptides were mixed with HIV-1 (IIIB, HXB2D, or a HXB2D mutant virus (V38A or Q40H)) and MT4-LTR-EGFP cells and incubated at 37° C. After 3 days, the wells were examined for EGFP expression using an argon laser-scanning microscope. The effective compound/peptide concentration inhibiting 50% of the virus-induced EGFP signal (EC50) was determined by linear interpolation of the EGFP signal vs. logarithm of the compound concentration; (T20, C34 and Sifuvirtide were added as reference compounds). For the V38A and Q40H mutant viruses, results were reported as a fold change in EC50, as compared with a drug-susceptible wild type strain HXB2D, which forms the backbone of the mutant virus. • Standard AVE (50% Human Serum)

In the case of “Ac-ECYLRCIEALIRAAQEQQEKNEAALR-NH2 [Peptide 50]”, the “HIV-IIIB + 50% HS (Fold change in EC50)” value (HIV-IIIB + 50% HS) is reported as 2, the EC50 [1] is reported as 2 nM and the “HIV-HXB2D Q40H mutant (fold change in EC50)” value [2] is reported as 33.
“Butanoyl-ECYLACIEELIRKAQEQQEKNEAALR-NH2 (Butyryl-ECYLACIEELIRKAQEQQEKNEAALR-NH2; cysteine pairing not given here) [Peptide 40]” was tested, and the “HIV-IIIB + 50% HS (Fold change in EC50)” value (HIV-IIIB + 50% HS) was 1, the EC50 [1] was 1 nM and the “HIV-HXB2D Q40H mutant (fold change in EC50)” value [2] was 84.
For ENYLALIEALIRAAQEQQEKNEAALL [Peptide 9], the “HIV-IIIB + 50% HS (Fold change in EC50)” value (HIV-IIIB + 50% HS) was 0.4, the EC50 [1] was 3 nM and the “HIV-HXB2D Q40H mutant (fold change in EC50)” value [2] was 1196.
With ENYLALIEALIRAAQEQQEKNEAALR [Peptide 8] the “HIV-IIIB + 50% HS (Fold change in EC50)” value (HIV-IIIB + 50% HS) was 0.4, the EC50 [1] was 2 nM and the “HIV-HXB2D Q40H mutant (fold change in EC50)” value [2] was 900.
In the case of “Isovaleryl-ANYAALIEALIRAAQEQQEKNEAALR-NH2 (SMILES CC[C@H](C)[C@H](NC(=O)[C@H](CC(C)C)NC(=O)[C@H](C)NC(=O)[C@H](CCC(=O)O)NC(=O)[C@@H](NC(=O)[C@H](CC(C)C)NC(=O)[C@H](C)NC(=O)[C@H](C)NC(=O)[C@H](Cc1ccc(O)cc1)NC(=O)[C@H](CC(N)=O)NC(=O)[C@H](C)NC(=O)CC(C)C)[C@@H](C)CC)C(=O)N[C@@H](CCCNC(=N)N)C(=O)N[C@@H](C)C(=O)N[C@@H](C)C(=O)N[C@@H](CCC(N)=O)C(=O)N[C@@H](CCC(=O)O)C(=O)N[C@@H](CCC(N)=O)C(=O)N[C@@H](CCC(N)=O)C(=O)N[C@@H](CCC(=O)O)C(=O)N[C@@H](CCCCN)C(=O)N[C@@H](CC(N)=O)C(=O)N[C@@H](CCC(=O)O)C(=O)N[C@@H](C)C(=O)N[C@@H](C)C(=O)N[C@@H](CC(C)C)C(=O)N[C@@H](CCCNC(=N)N)C(N)=O) [Peptide 17]”, the “HIV-IIIB + 50% HS (Fold change in EC50)” value (HIV-IIIB + 50% HS) is reported as 0.9, the EC50 [1] is reported as 24 nM and the “HIV-HXB2D Q40H mutant (fold change in EC50)” value [2] is reported as greater than 37.
In the case of “Pentanoyl-ANYAALIEALIRAAQEQQEKNEAALR-NH2 (SMILES CCCCC(=O)N[C@@H](C)C(=O)N[C@@H](CC(N)=O)C(=O)N[C@@H](Cc1ccc(O)cc1)C(=O)N[C@@H](C)C(=O)N[C@@H](C)C(=O)N[C@@H](CC(C)C)C(=O)N[C@H](C(=O)N[C@@H](CCC(=O)O)C(=O)N[C@@H](C)C(=O)N[C@@H](CC(C)C)C(=O)N[C@H](C(=O)N[C@@H](CCCNC(=N)N)C(=O)N[C@@H](C)C(=O)N[C@@H](C)C(=O)N[C@@H](CCC(N)=O)C(=O)N[C@@H](CCC(=O)O)C(=O)N[C@@H](CCC(N)=O)C(=O)N[C@@H](CCC(N)=O)C(=O)N[C@@H](CCC(=O)O)C(=O)N[C@@H](CCCCN)C(=O)N[C@@H](CC(N)=O)C(=O)N[C@@H](CCC(=O)O)C(=O)N[C@@H](C)C(=O)N[C@@H](C)C(=O)N[C@@H](CC(C)C)C(=O)N[C@@H](CCCNC(=N)N)C(N)=O)[C@@H](C)CC)[C@@H](C)CC) [Peptide 14]”, the “HIV-IIIB + 50% HS (Fold change in EC50)” value (HIV-IIIB + 50% HS) is reported as 2, the EC50 [1] is reported as 13 nM and the “HIV-HXB2D Q40H mutant (fold change in EC50)” value [2] is reported as greater than 67.
In the case of “Pentanoyl-ANYAALIEALIRKAQEQQEKNEAALR-NH2 (SMILES CCCCC(=O)N[C@@H](C)C(=O)N[C@@H](CC(N)=O)C(=O)N[C@@H](Cc1ccc(O)cc1)C(=O)N[C@@H](C)C(=O)N[C@@H](C)C(=O)N[C@@H](CC(C)C)C(=O)N[C@H](C(=O)N[C@@H](CCC(=O)O)C(=O)N[C@@H](C)C(=O)N[C@@H](CC(C)C)C(=O)N[C@H](C(=O)N[C@@H](CCCNC(=N)N)C(=O)N[C@@H](CCCCN)C(=O)N[C@@H](C)C(=O)N[C@@H](CCC(N)=O)C(=O)N[C@@H](CCC(=O)O)C(=O)N[C@@H](CCC(N)=O)C(=O)N[C@@H](CCC(N)=O)C(=O)N[C@@H](CCC(=O)O)C(=O)N[C@@H](CCCCN)C(=O)N[C@@H](CC(N)=O)C(=O)N[C@@H](CCC(=O)O)C(=O)N[C@@H](C)C(=O)N[C@@H](C)C(=O)N[C@@H](CC(C)C)C(=O)N[C@@H](CCCNC(=N)N)C(N)=O)[C@@H](C)CC)[C@@H](C)CC) [Peptide 16]”, the “HIV-IIIB + 50% HS (Fold change in EC50)” value (HIV-IIIB + 50% HS) is reported as 0.8, the EC50 [1] is reported as 8 nM and the “HIV-HXB2D Q40H mutant (fold change in EC50)” value [2] is reported as greater than 108.
In the case of “Pentanoyl-ANYLALIEALIRAAQEQQEKNEAALR-NH2 (SMILES CCCCC(=O)N[C@@H](C)C(=O)N[C@@H](CC(N)=O)C(=O)N[C@@H](Cc1ccc(O)cc1)C(=O)N[C@@H](CC(C)C)C(=O)N[C@@H](C)C(=O)N[C@@H](CC(C)C)C(=O)N[C@H](C(=O)N[C@@H](CCC(=O)O)C(=O)N[C@@H](C)C(=O)N[C@@H](CC(C)C)C(=O)N[C@H](C(=O)N[C@@H](CCCNC(=N)N)C(=O)N[C@@H](C)C(=O)N[C@@H](C)C(=O)N[C@@H](CCC(N)=O)C(=O)N[C@@H](CCC(=O)O)C(=O)N[C@@H](CCC(N)=O)C(=O)N[C@@H](CCC(N)=O)C(=O)N[C@@H](CCC(=O)O)C(=O)N[C@@H](CCCCN)C(=O)N[C@@H](CC(N)=O)C(=O)N[C@@H](CCC(=O)O)C(=O)N[C@@H](C)C(=O)N[C@@H](C)C(=O)N[C@@H](CC(C)C)C(=O)N[C@@H](CCCNC(=N)N)C(N)=O)[C@@H](C)CC)[C@@H](C)CC) [Peptide 15]”, the “HIV-IIIB + 50% HS (Fold change in EC50)” value (HIV-IIIB + 50% HS) is reported as 2, the EC50 [1] is reported as 2 nM and the “HIV-HXB2D Q40H mutant (fold change in EC50)” value [2] is reported as 168.
“Pentanoyl-ECYLCLIEELIRKAQEQQEKNEAALR-NH2 (cysteine pairing not given here) [Peptide 92]” was tested, and the “HIV-IIIB + 50% HS (Fold change in EC50)” value (HIV-IIIB + 50% HS) was 5, the EC50 [1] was 1 nM and the “HIV-HXB2D Q40H mutant (fold change in EC50)” value [2] was 3.
For “Pentanoyl-ECYLRCIEELIRKAQEQQEKNEAALR-NH2 (cysteine pairing not given here) [Peptide 91]”, the “HIV-IIIB + 50% HS (Fold change in EC50)” value (HIV-IIIB + 50% HS) was 5, the EC50 [1] was 1 nM and the “HIV-HXB2D Q40H mutant (fold change in EC50)” value [2] was 5.
With “Pentanoyl-ENYLALIEELIRKAQEQQEKNEAALR-NH2 (SMILES CCCCC(=O)N[C@@H](CCC(=O)O)C(=O)N[C@@H](CC(N)=O)C(=O)N[C@@H](Cc1ccc(O)cc1)C(=O)N[C@@H](CC(C)C)C(=O)N[C@@H](C)C(=O)N[C@@H](CC(C)C)C(=O)N[C@H](C(=O)N[C@@H](CCC(=O)O)C(=O)N[C@@H](CCC(=O)O)C(=O)N[C@@H](CC(C)C)C(=O)N[C@H](C(=O)N[C@@H](CCCNC(=N)N)C(=O)N[C@@H](CCCCN)C(=O)N[C@@H](C)C(=O)N[C@@H](CCC(N)=O)C(=O)N[C@@H](CCC(=O)O)C(=O)N[C@@H](CCC(N)=O)C(=O)N[C@@H](CCC(N)=O)C(=O)N[C@@H](CCC(=O)O)C(=O)N[C@@H](CCCCN)C(=O)N[C@@H](CC(N)=O)C(=O)N[C@@H](CCC(=O)O)C(=O)N[C@@H](C)C(=O)N[C@@H](C)C(=O)N[C@@H](CC(C)C)C(=O)N[C@@H](CCCNC(=N)N)C(N)=O)[C@@H](C)CC)[C@@H](C)CC) [Peptide 52]” the “HIV-IIIB + 50% HS (Fold change in EC50)” value (HIV-IIIB + 50% HS) was 2, the EC50 [1] was 1 nM and the “HIV-HXB2D Q40H mutant (fold change in EC50)” value [2] was 38.
With “SUC-ACYLACIDELIAKAQEQQEKNEAALR-NH2 (Suc-ACYLACIDELIAKAQEQQEKNEAALR-NH2; cysteine pairing not given here) [Peptide 36]” the “HIV-IIIB + 50% HS (Fold change in EC50)” value (HIV-IIIB + 50% HS) was 0.4, the EC50 [1] was 2 nM and the “HIV-HXB2D Q40H mutant (fold change in EC50)” value [2] was 373.
With “SUC-ACYLACIDELIKKAQEQQEKNEAALR-NH2 (Suc-ACYLACIDELIKKAQEQQEKNEAALR-NH2; cysteine pairing not given here) [Peptide 30]” the “HIV-IIIB + 50% HS (Fold change in EC50)” value (HIV-IIIB + 50% HS) was 0.5, the EC50 [1] was 1 nM and the “HIV-HXB2D Q40H mutant (fold change in EC50)” value [2] was 145.
“SUC-CYLACIEALIRAAQEQQEKNEAALR-NH2 (Suc-CYLACIEALIRAAQEQQEKNEAALR-NH2; cysteine pairing not given here) [Peptide 26]” was tested, and the “HIV-IIIB + 50% HS (Fold change in EC50)” value (HIV-IIIB + 50% HS) was 1, the EC50 [1] was 1 nM and the “HIV-HXB2D Q40H mutant (fold change in EC50)” value [2] was 311.
With “SUC-ECYLACIEALIRAAQEQQEKNEAALR-NH2 (Suc-ECYLACIEALIRAAQEQQEKNEAALR-NH2; cysteine pairing not given here) [Peptide 33]” the “HIV-IIIB + 50% HS (Fold change in EC50)” value (HIV-IIIB + 50% HS) was 0.6, the EC50 [1] was 1 nM and the “HIV-HXB2D Q40H mutant (fold change in EC50)” value [2] was 269.
“Suc-ACYLACIEALIRAAQEQQEKNEAALR-NH2 (cysteine pairing not given here) [Peptide 43]” was tested, and the “HIV-IIIB + 50% HS (Fold change in EC50)” value (HIV-IIIB + 50% HS) was 1, the EC50 [1] was 2 nM and the “HIV-HXB2D Q40H mutant (fold change in EC50)” value [2] was 103.
For “Suc-ACYLACIEELIRKAQEQQEKNEAALr-NH2 [Peptide 34]”, the “HIV-IIIB + 50% HS (Fold change in EC50)” value (HIV-IIIB + 50% HS) was 0.3, the EC50 [1] was 2 nM and the “HIV-HXB2D Q40H mutant (fold change in EC50)” value [2] was 265.

Source: patent US20140357577A1, “HIV Membrane Fusion Inhibitors” (priority 2011, published 2014)
